Measured values published in ChEMBL document CHEMBL1201862, “PubChem BioAssay data set” (2004).
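Compound exposure: 48 hours, 5 concentrations, 96-well plates. The concentration for 50% growth inhibition is given as GI50.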 Calls of active or inactive are those of the source. Rule as the data show it: active = GI50 up to about 1.1 µM and inactive = higher.

Experiments:
Test in all cases: NCI-60 cell line screen, 48 h
NCI-H460 = system: NCI-H460
OVCAR-5 = system: OVCAR-5
MOLT-4 = system: MOLT-4
Malme-3M = system: Malme-3M
RXF 393 = system: RXF 393
T47D = system: T47D
SK-MEL-5 = system: SK-MEL-5
HCC 2998 = system: HCC 2998
IGROV-1 = system: IGROV-1
K562 = system: K562
Hs-578T = system: Hs-578T
DU-145 = system: DU-145
A498 = system: A498
786-0 = system: 786-0
SF-268 = system: SF-268
MCF7 = system: MCF7
SN12C = system: SN12C
UACC-62 = system: UACC-62
HOP-62 = system: HOP-62

SMILES	GI50 (NCI-H460)	GI50 (OVCAR-5)	GI50 (MOLT-4)	GI50 (Malme-3M)	GI50 (RXF 393)	GI50 (T47D)	GI50 (SK-MEL-5)	GI50 (HCC 2998)	GI50 (IGROV-1)	GI50 (K562)	GI50 (Hs-578T)	GI50 (DU-145)	GI50 (A498)	GI50 (786-0)	GI50 (SF-268)	GI50 (MCF7)	GI50 (SN12C)	GI50 (UACC-62)	GI50 (HOP-62)
CCOC(=O)/C=C/C1OC(C)(C)OC1/C=C/C(=O)OCC (stereo unspecified)	21.2 µM (inactive)	29.9 µM (inactive)	28.4 µM (inactive)	39.8 µM (inactive)	9.91 µM (inactive)	29.4 µM (inactive)	38.4 µM (inactive)	23.2 µM (inactive)	31.3 µM (inactive)	21.4 µM (inactive)	37.8 µM (inactive)	34.8 µM (inactive)	42 µM (inactive)	32.2 µM (inactive)	41.4 µM (inactive)	30.8 µM (inactive)	22.6 µM (inactive)	39.9 µM (inactive)	23.7 µM (inactive)
CC(=O)OC12c3ccccc3-c3ccccc3C1C1C(=O)OC(=O)C12 (stereo unspecified)	> 10 µM (inactive)	> 10 µM (inactive)	> 10 µM (inactive)	> 10 µM (inactive)	> 10 µM (inactive)	> 10 µM (inactive)	> 10 µM (inactive)	> 10 µM (inactive)	> 10 µM (inactive)	> 10 µM (inactive)	> 10 µM (inactive)	> 10 µM (inactive)	> 10 µM (inactive)	> 10 µM (inactive)	> 10 µM (inactive)	> 10 µM (inactive)	> 10 µM (inactive)	–	> 10 µM (inactive)
COc1cc(C)c2c(c1C=O)Oc1c(c(C)c(O)c3c1C(O)OC3=O)OC2=O (stereo unspecified) [STICTIC ACID]	–	> 100 µM (inactive)	17.6 µM (inactive)	20.7 µM (inactive)	32.5 µM (inactive)	17.6 µM (inactive)	20.2 µM (inactive)	20.2 µM (inactive)	23.1 µM (inactive)	–	36.8 µM (inactive)	87.5 µM (inactive)	31.2 µM (inactive)	73.3 µM (inactive)	21.4 µM (inactive)	22.4 µM (inactive)	> 100 µM (inactive)	25.6 µM (inactive)	70.1 µM (inactive)
C/C=C(\C)C(=O)O[C@@H]1CC(C)(C)CC2C3=CCC4[C@]56CC[C@](O)(OC5)C(C)(C)C6CC[C@@]4(C)C3(C)CC[C@]21C(=O)O (stereo partly specified)	78.2 µM (inactive)	> 100 µM (inactive)	> 100 µM (inactive)	> 100 µM (inactive)	> 100 µM (inactive)	> 100 µM (inactive)	> 100 µM (inactive)	> 100 µM (inactive)	54.3 µM (inactive)	> 100 µM (inactive)	> 100 µM (inactive)	> 100 µM (inactive)	> 100 µM (inactive)	> 100 µM (inactive)	> 100 µM (inactive)	> 100 µM (inactive)	> 100 µM (inactive)	> 100 µM (inactive)	> 100 µM (inactive)
CC(=O)OCCOCCN1CCN(C2=C(Cl)C(=O)c3c(O)ccc(O)c3C2=O)CC1	4.9 µM (inactive)	1.59 µM (inactive)	0.165 µM (active)	0.318 µM (active)	0.69 µM (active)	0.652 µM (active)	1.54 µM (inactive)	2.37 µM (inactive)	1.55 µM (inactive)	0.264 µM (active)	3.1 µM (inactive)	1.88 µM (inactive)	1.86 µM (inactive)	0.326 µM (active)	1.86 µM (inactive)	0.302 µM (active)	0.767 µM (active)	1.38 µM (inactive)	3.04 µM (inactive)
CC1=NOC(=O)/C1=C/c1ccc2c(c1)OCO2	35.1 µM (inactive)	37.1 µM (inactive)	–	43.6 µM (inactive)	16 µM (inactive)	> 100 µM (inactive)	34.1 µM (inactive)	28.9 µM (inactive)	25.2 µM (inactive)	55.3 µM (inactive)	39.5 µM (inactive)	25.1 µM (inactive)	26.3 µM (inactive)	21.9 µM (inactive)	34.8 µM (inactive)	30.2 µM (inactive)	25.4 µM (inactive)	21.5 µM (inactive)	19.2 µM (inactive)
C/C=C/OC1C(C2COC(C)(C)O2)OC2OC(C)(C)OC21 (stereo unspecified)	> 100 µM (inactive)	> 100 µM (inactive)	> 100 µM (inactive)	> 100 µM (inactive)	> 100 µM (inactive)	> 100 µM (inactive)	> 100 µM (inactive)	> 100 µM (inactive)	> 100 µM (inactive)	> 100 µM (inactive)	> 100 µM (inactive)	> 100 µM (inactive)	> 100 µM (inactive)	> 100 µM (inactive)	> 100 µM (inactive)	> 100 µM (inactive)	–	–	> 100 µM (inactive)
CCCC[S+]([O-])CCC(N)C(=O)O (stereo unspecified)	> 100 µM (inactive)	> 100 µM (inactive)	> 100 µM (inactive)	1.94 µM (inactive)	> 100 µM (inactive)	> 100 µM (inactive)	> 100 µM (inactive)	> 100 µM (inactive)	> 100 µM (inactive)	> 100 µM (inactive)	> 100 µM (inactive)	> 100 µM (inactive)	> 100 µM (inactive)	> 100 µM (inactive)	> 100 µM (inactive)	> 100 µM (inactive)	> 100 µM (inactive)	> 100 µM (inactive)	> 100 µM (inactive)
CC(=O)c1ccc2c(c1)CC1(C2)Cc2cc3c(c(C(=O)O)c2C1)CCC3 (stereo unspecified)	64.6 µM (inactive)	> 100 µM (inactive)	> 100 µM (inactive)	53.1 µM (inactive)	> 100 µM (inactive)	53.5 µM (inactive)	44.6 µM (inactive)	> 100 µM (inactive)	> 100 µM (inactive)	72.4 µM (inactive)	33 µM (inactive)	> 100 µM (inactive)	> 100 µM (inactive)	> 100 µM (inactive)	> 100 µM (inactive)	> 100 µM (inactive)	> 100 µM (inactive)	72.1 µM (inactive)	> 100 µM (inactive)
NC(=O)C(Nc1c(Cl)cccc1Cl)c1cc2cc(Br)ccc2nc1Cl (stereo unspecified)	90.8 µM (inactive)	> 100 µM (inactive)	20.7 µM (inactive)	> 100 µM (inactive)	41.7 µM (inactive)	44.4 µM (inactive)	37.5 µM (inactive)	44.8 µM (inactive)	28.1 µM (inactive)	29.4 µM (inactive)	85.3 µM (inactive)	> 100 µM (inactive)	> 100 µM (inactive)	> 100 µM (inactive)	49.8 µM (inactive)	30.1 µM (inactive)	63.1 µM (inactive)	44.1 µM (inactive)	65.8 µM (inactive)
Oc1ccccc1-c1n[nH]c(-c2ccccc2O)n1	0.573 µM (active)	7.11 µM (inactive)	1.24 µM (inactive)	2.84 µM (inactive)	2.23 µM (inactive)	2.21 µM (inactive)	3.04 µM (inactive)	3.9 µM (inactive)	0.407 µM (active)	3.64 µM (inactive)	> 66.1 µM (inactive)	8.13 µM (inactive)	8.51 µM (inactive)	4.18 µM (inactive)	3.05 µM (inactive)	0.577 µM (active)	2.17 µM (inactive)	7.59 µM (inactive)	1.77 µM (inactive)
CC1=CC(=O)c2ccccc2C1=O [MENADIONE]	11.5 µM (inactive)	11.8 µM (inactive)	1.77 µM (inactive)	4.76 µM (inactive)	13.4 µM (inactive)	2.01 µM (inactive)	2.18 µM (inactive)	17 µM (inactive)	15.7 µM (inactive)	2.38 µM (inactive)	10.7 µM (inactive)	15.9 µM (inactive)	22.6 µM (inactive)	14.6 µM (inactive)	7.52 µM (inactive)	8.34 µM (inactive)	12.4 µM (inactive)	4.67 µM (inactive)	16.1 µM (inactive)
CC1CC(C)C(O)C(C2CC(CC(=O)NC3CCCCC3)CC(=O)O2)C1 (stereo unspecified)	> 100 µM (inactive)	> 100 µM (inactive)	> 100 µM (inactive)	> 100 µM (inactive)	> 100 µM (inactive)	> 100 µM (inactive)	> 100 µM (inactive)	> 100 µM (inactive)	> 100 µM (inactive)	> 100 µM (inactive)	> 100 µM (inactive)	> 100 µM (inactive)	> 100 µM (inactive)	> 100 µM (inactive)	> 100 µM (inactive)	> 100 µM (inactive)	87.9 µM (inactive)	–	> 100 µM (inactive)
CCOP(=O)(OCC)C1(O)CC(n2cc(C)c(=O)[nH]c2=O)OC1CO (stereo unspecified)	> 100 µM (inactive)	> 100 µM (inactive)	–	> 100 µM (inactive)	> 100 µM (inactive)	> 100 µM (inactive)	> 100 µM (inactive)	> 100 µM (inactive)	> 100 µM (inactive)	> 100 µM (inactive)	> 100 µM (inactive)	> 100 µM (inactive)	> 100 µM (inactive)	> 100 µM (inactive)	> 100 µM (inactive)	> 100 µM (inactive)	> 100 µM (inactive)	> 100 µM (inactive)	> 100 µM (inactive)
O=C1CCc2ccccc2O1 [DIHYDROCOUMARIN]	> 100 µM (inactive)	> 100 µM (inactive)	> 100 µM (inactive)	> 100 µM (inactive)	> 100 µM (inactive)	> 100 µM (inactive)	–	> 100 µM (inactive)	> 100 µM (inactive)	> 100 µM (inactive)	> 100 µM (inactive)	> 100 µM (inactive)	> 100 µM (inactive)	> 100 µM (inactive)	> 100 µM (inactive)	> 100 µM (inactive)	> 100 µM (inactive)	> 100 µM (inactive)	> 100 µM (inactive)
